Source: patent US20070249620A1, “Urea Derivative” (priority 2004, published 2007)

Columns and labels:
mouse DGAT1 = biological target: T1, mouse DGAT1 (Mus musculus, UniProt Q9Z2A7); test: DGAT1 inhibitory effect test (microsome fraction, [14C]-oleoyl-CoA, triglyceride radioactivity by TLC); assay type: biochemical; settings: 0.5 h; concentration of the test compound 0.1 μg/ml; mouse DGAT1 microsomes, 23° C., 30 minutes; read-out: Inhibitory ratio
T1 construct: made in house; host or cells: insect cells (High Five, Sf9, Sf21, etc.), baculovirus expression system (Invitrogen)
T1 sequence (Q9Z2A7 1-498): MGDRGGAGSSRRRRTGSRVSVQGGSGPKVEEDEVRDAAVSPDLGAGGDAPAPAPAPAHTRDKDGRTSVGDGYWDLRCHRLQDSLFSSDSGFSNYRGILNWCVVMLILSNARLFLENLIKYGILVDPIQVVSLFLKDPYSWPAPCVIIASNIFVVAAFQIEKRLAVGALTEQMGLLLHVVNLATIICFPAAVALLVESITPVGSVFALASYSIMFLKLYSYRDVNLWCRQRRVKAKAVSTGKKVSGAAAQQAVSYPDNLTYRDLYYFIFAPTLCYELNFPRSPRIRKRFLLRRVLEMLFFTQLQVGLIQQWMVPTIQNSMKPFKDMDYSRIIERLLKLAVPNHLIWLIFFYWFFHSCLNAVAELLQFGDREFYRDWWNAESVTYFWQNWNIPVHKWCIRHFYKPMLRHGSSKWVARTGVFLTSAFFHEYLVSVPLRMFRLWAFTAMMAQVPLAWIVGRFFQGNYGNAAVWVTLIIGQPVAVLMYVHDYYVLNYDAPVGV
In short: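 Baculovirus-expressed mouse DGAT1 insect-cell microsomes (10 μg) were incubated 30 min at 23 °C, pH 8.0, with 0.5 mM 1,2-dioleoyl-sn-glycerol, 30 μM [14C]-oleoyl-CoA and 0.5% Triton X-100. [14C]-triglyceride was quantified after heptane extraction and TLC. Percent inhibition was taken against vehicle control, with 0-min background subtracted.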

inhibition at 0.1 µg/mL (mouse DGAT1) [%] | melting point [°C] | SMILES
≥ 50 | 159 to 161 | CCOc1ccc(C)cc1NC(=O)Nc1ccc(N2CCN(C(=O)Nc3c(Cl)cccc3Cl)CC2)cc1 [Example 134, 4-{4-[3-(2-ethoxy-5-methyl-phenyl)-ureido]-phenyl}-piperazine-1-carboxylic acid (2,6-dichloro-phenyl)-amide]
≥ 50 | 135 to 137 | CCOc1ccc(Cl)cc1NC(=O)Nc1ccc(N2CCN(C(=O)Nc3c(Cl)cccc3Cl)CC2)cc1 [Example 135, 4-{4-[3-(5-chloro-2-ethoxy-phenyl)-ureido]-phenyl}-piperazine-1-carboxylic acid (2,6-dichloro-phenyl)-amide]
≥ 50 | 213 to 214 | COc1ccc(C)cc1NC(=O)Nc1ccc(N2CCN(C(=O)Nc3ccccc3C(F)(F)F)CC2)nc1 [Example 137, 4-{5-[3-(2-methoxy-5-methyl-phenyl)-ureido]-pyridin-2-yl}-piperazine-1-carboxylic acid (2-trifluoromethyl-phenyl)-amide]
≥ 50 | 222 to 224 | COc1ccc(C)cc1NC(=O)Nc1ccc(N2CCN(C(=O)Nc3c(Cl)cccc3Cl)CC2)nc1 [Example 140, 4-{5-[3-(2-methoxy-5-methyl-phenyl)-ureido]-pyridin-2-yl}-piperazine-1-carboxylic acid (2,6-dichloro-phenyl)-amide]
≥ 50 | 185 to 186 | CCOc1ccccc1NC(=O)Nc1ccc(N2CCN(C(=O)Nc3c(C)cccc3Cl)CC2)nc1 [Example 141, 4-{5-[3-(2-ethoxy-phenyl)-ureido]-pyridin-2-yl}-piperazine-1-carboxylic acid (2-chloro-6-methyl-phenyl)-amide]
≥ 50 | 188 to 190 | CCOc1ccccc1NC(=O)Nc1ccc(N2CCN(C(=O)Nc3c(C)cccc3C)CC2)nc1 [Example 142, 4-{5-[3-(2-ethoxy-phenyl)-ureido]-pyridin-2-yl}-piperazine-1-carboxylic acid (2,6-dimethyl-phenyl)-amide]
≥ 50 | 177 to 179 | CCOc1ccccc1NC(=O)Nc1ccc(N2CCN(C(=O)Nc3c(F)cccc3C(F)(F)F)CC2)nc1 [Example 143, 4-{5-[3-(2-ethoxy-phenyl)-ureido]-pyridin-2-yl}-piperazine-1-carboxylic acid (2-fluoro-6-trifluoromethyl-phenyl)-amide]
≥ 50 | 170 to 172 | CCOc1ccccc1NC(=O)Nc1ccc(N2CCN(C(=O)Nc3c(Cl)cccc3Cl)CC2)nc1 [Example 144, 4-{5-[3-(2-ethoxy-phenyl)-ureido]-pyridin-2-yl}-piperazine-1-carboxylic acid (2,6-dichloro-phenyl)-amide]
≥ 50 | 166 to 168 | CCOc1ccccc1NC(=O)Nc1ccc(N2CCN(C(=O)Nc3ccc(OC)cc3C)CC2)nc1 [Example 145, 4-{5-[3-(2-ethoxy-phenyl)-ureido]-pyridin-2-yl}-piperazine-1-carboxylic acid (4-methoxy-2-methyl-phenyl)-amide]
≥ 50 | 136 to 137 | CCOc1ccccc1NC(=O)Nc1ccc(N2CCN(C(=O)Nc3ccc(C)cc3Cl)CC2)nc1 [Example 146, 4-{5-[3-(2-ethoxy-phenyl)-ureido]-pyridin-2-yl}-piperazine-1-carboxylic acid (2-chloro-4-methyl-phenyl)-amide]
≥ 50 | 227 to 228 | COc1ccc(F)cc1NC(=O)Nc1ccc(N2CCN(C(=O)Nc3c(C)cccc3Cl)CC2)nc1 [Example 148, 4-{5-[3-(5-fluoro-2-methoxy-phenyl)-ureido]-pyridin-2-yl}-piperazine-1-carboxylic acid (2-chloro-6-methyl-phenyl)-amide]
≥ 50 | 226 to 228 | COc1ccc(F)cc1NC(=O)Nc1ccc(N2CCN(C(=O)Nc3c(C)cccc3C)CC2)nc1 [Example 149, 4-{5-[3-(5-fluoro-2-methoxy-phenyl)-ureido]-pyridin-2-yl}-piperazine-1-carboxylic acid (2,6-dimethyl-phenyl)-amide]
≥ 50 | 228 | COc1ccc(F)cc1NC(=O)Nc1ccc(N2CCN(C(=O)Nc3c(Cl)cccc3Cl)CC2)nc1 [Example 151, 4-{5-[3-(5-fluoro-2-methoxy-phenyl)-ureido]-pyridin-2-yl}-piperazine-1-carboxylic acid (2,6-dichloro-phenyl)-amide]
≥ 50 | 232 to 234 | CCC(C)c1ccccc1NC(=O)Nc1ccc(N2CCN(C(=O)Nc3c(C)cccc3Cl)CC2)cc1 (centres unmarked) [Example 157, 4-{4-[3-(2-sec-butyl-phenyl)-ureido]-phenyl}-piperazine-1-carboxylic acid (2-chloro-6-methyl-phenyl)-amide]

More lines, now with the values behind:

SMILES | inhibition at 0.1 µg/mL (mouse DGAT1) [%] | melting point [°C]
COc1ccc(C)cc1NC(=O)Nc1ccc(N2CCN(C(=O)Nc3c(C)cccc3C)CC2)nc1 [Example 138, 4-{5-[3-(2-methoxy-5-methyl-phenyl)-ureido]-pyridin-2-yl}-piperazine-1-carboxylic acid (2,6-dimethyl-phenyl)-amide] | ≥ 50 | 221 to 223
COc1ccc(C)cc1NC(=O)Nc1ccc(N2CCN(C(=O)Nc3c(F)cccc3C(F)(F)F)CC2)nc1 [Example 139, 4-{5-[3-(2-methoxy-5-methyl-phenyl)-ureido]-pyridin-2-yl}-piperazine-1-carboxylic acid (2-fluoro-6-trifluoromethyl-phenyl)-amide] | ≥ 50 | 221 to 222
COc1ccc(C)cc1NC(=O)Nc1ccc(N2CCN(C(=O)Nc3ccc(C)cc3Cl)CC2)nc1 [Example 147, 4-{5-[3-(2-methoxy-5-methyl-phenyl)-ureido]-pyridin-2-yl}-piperazine-1-carboxylic acid (2-chloro-4-methyl-phenyl)-amide] | ≥ 50 | 214 to 215
COc1ccc(C)cc1NC(=O)Nc1ccc(N2CCN(C(=O)Nc3c(F)cccc3F)CC2)nc1 [Example 152, 4-{5-[3-(2-methoxy-5-methyl-phenyl)-ureido]-pyridin-2-yl}-piperazine-1-carboxylic acid (2,6-difluoro-phenyl)-amide] | ≥ 50 | 237 to 239
COc1ccc(NC(=O)N2CCN(c3ccc(NC(=O)Nc4cc(F)ccc4OC)cn3)CC2)c(C)c1 [Example 153, 4-{5-[3-(5-fluoro-2-methoxy-phenyl)-ureido]-pyridin-2-yl}-piperazine-1-carboxylic acid (4-methoxy-2-methyl-phenyl)-amide] | ≥ 50 | 212 to 214
COc1ccc(F)cc1NC(=O)Nc1ccc(N2CCN(C(=O)Nc3ccc(C)cc3Cl)CC2)nc1 [Example 154, 4-{5-[3-(5-fluoro-2-methoxy-phenyl)-ureido]-pyridin-2-yl}-piperazine-1-carboxylic acid (2-chloro-4-methyl-phenyl)-amide] | ≥ 50 | 217 to 218
COc1ccc(C)cc1NC(=O)Nc1ccc(N2CCN(C(=O)Nc3ccc(F)cc3C(F)(F)F)CC2)nc1 [Example 155, 4-{5-[3-(2-methoxy-5-methyl-phenyl)-ureido]-pyridin-2-yl}-piperazine-1-carboxylic acid (4-fluoro-2-trifluoromethyl-phenyl)-amide] | ≥ 50 | 186 to 187
Cc1cccc(Cl)c1NC(=O)N1CCN(c2ccc(NC(=O)Nc3ccc(N(C)C)cc3)cc2)CC1 [Example 156, 4-{4-[3-(4-dimethylamino-phenyl)-ureido]-phenyl}-piperazine-1-carboxylic acid (2-chloro-6-methyl-phenyl)-amide] | ≥ 50 | 214 to 217
Cc1cccc(Cl)c1NC(=O)N1CCN(c2ccc(NC(=O)Nc3ccc(C(C)C)cc3)cc2)CC1 [Example 158, 4-{4-[3-(4-isopropyl-phenyl)-ureido]-phenyl}-piperazine-1-carboxylic acid (2-chloro-6-methyl-phenyl)-amide] | ≥ 50 | 278 to 280
CCOc1ccc(NC(=O)Nc2ccc(N3CCN(C(=O)Nc4c(C)cccc4Cl)CC3)cc2)cc1 [Example 159, 4-{4-[3-(4-ethoxy-phenyl)-ureido]-phenyl}-piperazine-1-carboxylic acid (2-chloro-6-methyl-phenyl)-amide] | ≥ 50 | 229 to 230
CCc1ccc(NC(=O)Nc2ccc(N3CCN(C(=O)Nc4c(C)cccc4Cl)CC3)cc2)cc1 [Example 160, 4-{4-[3-(4-ethyl-phenyl)-ureido]-phenyl}-piperazine-1-carboxylic acid (2-chloro-6-methyl-phenyl)-amide] | ≥ 50 | 239 to 241
